Here are results for 10 molecules from PubChem BioAssay (NCI).

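These data come from cells grown in 96-well plates and exposed to compound for 48 hours at five concentrations. Here, GI50 denotes the concentration required for 50% inhibition of growth. The concentration for full growth arrest is given as TGI.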 Where only a bound is given, the exact number is not on record here.

Test systems include A498 renal; COLO 205 colon; EKVX NSCLC; HT29 colon; NCI-H522 lung; NCI/ADR-RES ovarian; PC-3 prostate; SF-539 CNS; SN12C renal; TK-10 renal.
Common to all, as to assay: NCI-60 cell line screen, 48 h

Consider `O=C(CCCN1CCC2(CC1)C(=NC1CCCCC1)NC(=O)N2c1ccccc1)c1ccc(F)cc1`, for which the TGI in the assay with A498 renal is 34.1 µM; in the assay with COLO 205 colon, 31.2 µM; in the assay with EKVX NSCLC it was > 100 µM; in the assay on HT29 colon, 37 µM; with NCI-H522 lung, 51.3 µM; in the assay on NCI/ADR-RES ovarian it was 51.4 µM. The TGI with PC-3 prostate was determined as 43.3 µM; with SF-539 CNS it was 33.9 µM; in the assay on SN12C renal, 40.7 µM; in the assay with TK-10 renal it was 63.2 µM.
Consider `N#CCCN(CCC#N)c1ccc(/C=C2\SC(=S)NC2=O)cc1Br`, for which the TGI in the assay on A498 renal, with COLO 205 colon, with EKVX NSCLC, in the assay with HT29 colon, in the assay with NCI-H522 lung and with NCI/ADR-RES ovarian was > 100 µM in each case. In addition, the TGI in the assay on PC-3 prostate, with SF-539 CNS, with SN12C renal and with TK-10 renal was > 100 µM throughout.
For the molecule `N#Cc1c(C#N)c(-c2ccccc2)n(-c2ccccc2)c1N`, the TGI in the assay with A498 renal, with COLO 205 colon, in the assay on EKVX NSCLC, in the assay on HT29 colon, in the assay on NCI-H522 lung and in the assay on NCI/ADR-RES ovarian was > 100 µM throughout. Besides, the TGI in the assay with PC-3 prostate, in the assay with SF-539 CNS, in the assay on SN12C renal and in the assay on TK-10 renal was > 100 µM each time.
For the molecule `N#CC(=N)c1ncn(-c2ccccc2N)c1N`, the TGI in the assay on A498 renal, in the assay with COLO 205 colon, in the assay with EKVX NSCLC, in the assay with HT29 colon, in the assay on NCI-H522 lung and in the assay on NCI/ADR-RES ovarian was > 100 µM each time. In addition, the TGI in the assay on PC-3 prostate, in the assay on SF-539 CNS, in the assay with SN12C renal and in the assay with TK-10 renal was > 100 µM each time.
With `O=C1CCCc2cc3c(cc21)CC1(C3)Cc2ccc3c(c2C1)C(=O)CCC3` (stereo not given), the TGI was > 100 µM in the assay with A498 renal; 34.9 µM in the assay with COLO 205 colon; > 100 µM in the assay with EKVX NSCLC; > 100 µM in the assay with HT29 colon; > 100 µM with NCI-H522 lung; 37 µM in the assay on NCI/ADR-RES ovarian. Moreover, the TGI in the assay on PC-3 prostate, with SF-539 CNS, with SN12C renal and in the assay on TK-10 renal was > 100 µM throughout.
`O=C(Nc1ccc(-n2cc(-c3ccncc3)c(-c3ccc(O)c(Cl)c3)n2)cc1)Nc1cccc(Cl)c1Cl`: the GI50 in the assay on A498 renal is 13.8 µM; in the assay with COLO 205 colon it was 4.54 µM; in the assay on EKVX NSCLC, 9.99 µM; in the assay with HT29 colon, 3.87 µM; with NCI-H522 lung, 4.03 µM; in the assay on NCI/ADR-RES ovarian, > 32.5 µM. Also, the GI50 was 1730 nM in the assay with PC-3 prostate, 2040 nM in the assay with SF-539 CNS, 19.9 µM with SN12C renal and 6.52 µM in the assay with TK-10 renal. Also, the TGI in the assay on A498 renal was > 32.5 µM; with COLO 205 colon, 13 µM; in the assay with EKVX NSCLC, > 32.5 µM; with HT29 colon, 10.4 µM; in the assay on NCI-H522 lung, > 32.5 µM; with NCI/ADR-RES ovarian, > 32.5 µM. In addition, the TGI in the assay on PC-3 prostate is 14.3 µM; in the assay with SF-539 CNS it was 9.27 µM; in the assay on SN12C renal it was > 32.5 µM; with TK-10 renal it was 22.1 µM.
In the case of `COC(=O)C1OC(O[C@H]2CC[C@]3(C)[C@H]4CC=C5[C@@H]6CC(C)(C)CC[C@]6(C(=O)OC6OCC(O)C(O)C6OC6OC(C)C(OC7OCC(OC8OCC(O)C(O)C8O)C(O)C7O)C(O)C6O)[C@H](O)C[C@@]5(C)[C@]4(C)CC[C@H]3C2(C)C)C(O)C(O)C1O` (stereo not given in full), the TGI in the assay on A498 renal turned out to be 3.94 µM; in the assay with COLO 205 colon it was 3.09 µM; with EKVX NSCLC, 5.86 µM; in the assay on HT29 colon, 8.9 µM; in the assay on NCI-H522 lung, 7.76 µM; in the assay with NCI/ADR-RES ovarian, 21.1 µM. The TGI is 15.5 µM in the assay with PC-3 prostate, > 100 µM with SF-539 CNS, 3.36 µM in the assay on SN12C renal and 22.5 µM in the assay on TK-10 renal.
With `CC(C)(C)C(=O)C(Cc1ccccc1)C(=O)C(C)(C)C`, the TGI in the assay on A498 renal, in the assay on COLO 205 colon, with EKVX NSCLC, in the assay on HT29 colon, in the assay with NCI-H522 lung and in the assay with NCI/ADR-RES ovarian was > 100 µM in each case. For the same molecule, the TGI in the assay with PC-3 prostate, in the assay with SF-539 CNS, with SN12C renal and in the assay with TK-10 renal was > 100 µM in each case.
In the case of `CC(C)(C)c1ccc(OCC(=O)O)c(Cl)c1`, the TGI with A498 renal, in the assay with COLO 205 colon, with EKVX NSCLC, in the assay with HT29 colon, in the assay on NCI-H522 lung and with NCI/ADR-RES ovarian was > 100 µM throughout. Further, the TGI in the assay with PC-3 prostate, in the assay with SF-539 CNS, with SN12C renal and with TK-10 renal was > 100 µM each time.
In the case of `CCCOC(=O)NC(C)C(=O)NC(CCC(=O)NC(CCCC(N)C(=O)O)C(=O)NC(C)C(=O)O)C(=O)O` (stereo not given), the TGI in the assay on A498 renal is > 100 µM; in the assay with COLO 205 colon, 48.7 µM; with EKVX NSCLC, > 100 µM; in the assay with HT29 colon, 38.4 µM; with NCI-H522 lung it was > 100 µM; in the assay on NCI/ADR-RES ovarian, 37 µM. For the same molecule, the TGI with PC-3 prostate is 53.7 µM; with SF-539 CNS, 31.3 µM; with SN12C renal, > 100 µM; with TK-10 renal, > 100 µM.
